Test results published in patent publication US20090257999A1, “Method of preventing contrast-induced nephropathy” (Inotek Pharmaceuticals Corporation, priority 2007, published 2009).

System: diabetic rats
Experiment: CIN animal model, Example 1: fractional excretion of Na+ (FENa, tubular function)
Type: in vivo, rat
Conditions: at 96 hours
Procedure: Male Wistar rats (150-200 g; Harlan Nossanr) were housed in a controlled environment and provided with standard rodent chow and water.
After 12 hours of fasting, the animals received a single 60 mg/kg intravenous (i.v.) injection of streptozotocin (Sigma, St. Louis, Mo.) in 10 mM sodium citrate buffer, pH 4.5 (see figure showing CIN model). Control non-diabetic animals were fasted and received citrate buffer alone. After 24 hours, animals with blood glucose levels greater than 250 mg/dl were considered diabetic. All experiments were performed 10 days following the induction of diabetes. The diabetic state was evaluated daily by determination of the blood glucose levels. […]
At the indicated time point blood samples were collected via the lateral tail vein into S1/3 tubes containing serum gel. […] All plasma samples were analyzed for biochemical parameters within 24 hours of collection. Plasma concentrations of urea and creatinine were measured as indicators of impaired glomerular function. Urine samples were collected at 96 hour after contrast agent administration and the volume of urine produced was recorded. Urine concentrations of Na^+ were measured and were used in conjunction with plasma Na^+ concentrations to calculate fractional excretion of Na^+ (FENa) using standard formulae, which was used as an indicator of tubular function. […]

SMILES: CC(=O)N[C@@H](CS)C(=O)O [NAC, N-acetylcysteine]
- fractional excretion of sodium (FENa) (diabetic rats + i.v. Iomeprol, Metalloporphyrin A 30-1000 μg/kg or NAC 10 mg/kg i.p.): significant reductions
- fractional excretion of sodium (FENa) (diabetic rats + i.v. saline (no contrast agent), Metalloporphyrin A 1000 μg/kg or NAC 10 mg/kg i.p.): significantly reduced the increase
